From US8841233B2, “Herbicidal compositions comprising 4-amino-3-chloro-5-fluoro-6-(4-chloro-2-fluoro-3-methoxyphenyl) pyridine-2-carboxylic acid or a derivative thereof and 4-hydroxyphenyl-pyruvate dioxygenase (HPPD) inhibitors” (Dow Agrosciences LLC, priority 2012, dated 2014) come the findings set out here.

Holding throughout (experiment): Pre-emergence soil-applied weed control, greenhouse (Example III)
The subject of one experiment is IPOHE. The class given is in vivo, Ipomoea hederacea (L.) Jacq. The following applies: 35 gai/ha. From the text: (§1) Evaluation of Pre-emergence Soil-Applied Herbicidal Mixtures for Weed Control
(§2) Seeds or nutlets of the desired test plant species were planted in a soil matrix prepared by mixing a loam soil (32 percent silt, 23 percent clay, and 45 percent sand, with a pH of about 6.5 and an organic matter content of about 1.9 percent) and calcareous grit in an 80 to 20 ratio. The soil matrix was contained in plastic pots with a volume of 1 quart and a surface area of 83.6 square centimeters (cm^2).
(§3) Treatments consisted of the benzyl ester of 4-amino-3-chloro-5-fluoro-6-(4-chloro-2-fluoro-3-methoxy-phenyl)pyridine-2-carboxylic acid (compound A) formulated as an SC (suspension concentrate) and various herbicidal components alone and in combination. Forms of compound A were applied on an acid equivalent basis.
(§4) Other herbicidal components were applied on an acid equivalent or active ingredient basis and included the 4-hydroxyphenyl pyruvate dioxygenase (HPPD)-inhibiting herbicide, isoxaflutole, formulated as Balance Pro®.
(§5) Treatment requirements were calculated based upon the rates being tested, the concentration of active ingredient or acid equivalent in the formulation, and a 12 mL application volume at a rate of 187 L/ha.
(§6) For treatments comprised of formulated compounds, measured amounts of compounds were placed individually in 25 mL glass vials and diluted in a volume of 1.25% (v/v) Agri-Dex® crop oil concentrate (COC) to obtain 12× stock solutions. […] Application solutions were prepared by adding an appropriate amount of each stock solution (e.g., 1 mL) and diluted to the appropriate final concentrations with the addition of 10 mL of an aqueous mixture of 1.25% (v/v) COC so that the final spray solutions contained 1.25% (v/v) COC.
(§7) All stock solutions and applications solutions were visually inspected for compound compatibility prior to application. Spray solutions were applied to the soil with an overhead Mandel track sprayer equipped with a 8002E nozzles calibrated to deliver 187 L/ha over an application area of 0.503 m^2 at a spray height of 18 inches (46 cm) above average pot height. Control pots were sprayed in the same manner with the solvent blank.
(§8) The treated and control pots were placed in a greenhouse and top watered as needed. When required to ensure good germination and healthy plants, a fungicide treatment and/or other chemical or physical treatment was applied. […] After approximately 4 weeks, the condition of the test plants as compared with that of the untreated plants was determined visually and scored on a scale of 0 to 100 percent where 0 corresponds to no injury or growth inhibition and 100 corresponds to complete kill. […]

For the next experiment, the system named is XANST. The class given is in vivo, Xanthium strumarium L. Particulars: 35 gai/ha.
Text: as §1, §2, §3, §4, §5, §6, §7, §8

In the next experiment the test system is SETVI. The class given is in vivo, Setaria viridis (L.) Beauv.
Text: as §1, §2, §3, §4, §5, §6, §7, §8

For the compound `CS(=O)(=O)c1cc(C(F)(F)F)ccc1C(=O)c1cnoc1C1CC1` [Isoxaflutole, (5-cyclopropyl-4-isoxazolyl)[2-(methylsulfonyl)-4-(trifluoromethyl)phenyl]methanone, reference compound], the “Visual Weed Control (%) - 32 DAA IPOHE Obs” value in the experiment with IPOHE was 43%. For the same compound, the “Visual Weed Control (%) - 32 DAA XANST Obs” value in the experiment on XANST is recorded as 75%. Besides, the entries for the “Visual Weed Control (%) - 32 DAA SETVI Obs” value with SETVI (35 gai/ha) and with SETVI (70 gai/ha) were 50% and 93%, respectively.
